Laboratory results taken from patent publication US8895587B2, “Insecticidal compounds based on arylthioacetamide derivatives” (Syngenta Participations AG, priority 2011, dated 2014).

Columns and labels:
Type in all cases: in vivo
[1] = system: Plutella xylostella; assay: Plutella xylostella (diamond back moth) larval test on artificial diet; settings: 144 h, application rate 200 ppm (concentration in well 18 ppm), L2 larvae on artificial diet, 6 days
Method: (§1) 24-well microtiter plate (MTP) with artificial diet was treated with test solutions at an application rate of 200 ppm (concentration in well 18 ppm) by pipetting. After drying, the MTP's were infested with L2 larvae (7-12 per well). After an incubation period of 6 days, samples were checked for larval mortality and growth regulation.

[2] = system: Heliothis virescens; assay: Heliothis virescens (tobacco budworm) egg/larval test on artificial diet; settings: 96 h; for pest or weed control at 0.8 ppm: application rate 0.8 ppm; for pest or weed control at 3 ppm: application rate 3 ppm
[3] = system: Diabrotica balteata; assay: Diabrotica balteata (corn root worm) larval test on artificial diet; settings: 120 h, read-out: Control/% Diabrotica balteata Corn rootworm; for pest or weed control at 12 ppm: application rate 12 ppm; for pest or weed control at 50 ppm: application rate 50 ppm; for pest or weed control at 3 ppm: application rate 3 ppm
[4] = system: Heliothis virescens; assay: Heliothis virescens (tobacco budworm) egg/larval test on artificial diet; settings: 96 h, application rate 200 ppm (concentration in well 18 ppm), eggs on artificial diet, 4 days
Method: Eggs (0-24 h old) were placed in 24-well microtiter plate on artificial diet and treated with test solutions at an application rate of 200 ppm (concentration in well 18 ppm) by pipetting. After an incubation period of 4 days, samples were checked for egg mortality, larval mortality, and growth regulation.

[5] = system: Thrips tabaci; assay: Thrips tabaci (onion thrips) leaf disc test; settings: foliar, 168 h, application rate 200 ppm, sunflower leaf discs, 7 days
Method: Sunflower leaf discs were placed on agar in a 24-well microtiter plate and sprayed with test solutions at an application rate of 200 ppm. After drying, the leaf discs were infested with a thrips population of mixed ages. After an incubation period of 7 days, samples were checked for mortality.

[6] = system: Plutella xylostella; assay: Plutella xylostella (diamond back moth) larval test on artificial diet; settings: 144 h; for pest or weed control at 0.8 ppm: application rate 0.8 ppm; for pest or weed control at 3 ppm: application rate 3 ppm
[7] = system: Diabrotica balteata; assay: Diabrotica balteata (corn root worm) larval test on artificial diet; settings: 120 h, application rate 200 ppm (concentration in well 18 ppm), L2 larvae on artificial diet, 5 days
Method: as §1, with “Diabrotica balteata (Corn Root Worm): A 24-well” for “24-well”, “(6-10” for “(7-12”, “5” for “6”

[8] = system: Tetranychus urticae; assay: Tetranychus urticae (two-spotted spider mite) leaf disc test; settings: foliar, 192 h, application rate 200 ppm, bean leaf discs, 8 days
Description: Bean leaf discs on agar in 24-well microtiter plates were sprayed with test solutions at an application rate of 200 ppm. After drying, the leaf discs are infested with mite populations of mixed ages. 8 days later, discs are checked for egg mortality, larval mortality, and adult mortality.

[9] = system: Myzus persicae; assay: Myzus persicae (green peach aphid), systemic test; settings: 144 h, application rate 12.5 ppm, roots of pea seedlings in test solution, 6 days
Description: Myzus persicae (Green peach aphid), systemic test: Roots of pea seedlings, infested with an aphid population of mixed ages, are placed directly in the test solutions at an application rate of 12.5 ppm. 6 days after introduction, samples are checked for mortality and special effects on the plant. The following compounds gave at least 80% control of Myzus persicae: […]

[10] = system: Spodoptera littoralis; assay: Spodoptera littoralis (Egyptian cotton leafworm) leaf disc test; settings: foliar, 72 h, application rate 200 ppm, cotton leaf discs, L1 larvae, mortality, feeding behavior, growth regulation 3 DAT
Description: Spodoptera littoralis (Egyptian Cotton Leafworm): Cotton leaf discs were placed on agar in a 24-well microtiter plate and sprayed with test solutions at an application rate of 200 ppm. After drying, the leaf discs were infested with 5 L1 larvae. The samples were checked for mortality, feeding behavior, and growth regulation 3 days after treatment (DAT).

Row | SMILES | pest or weed control at 200 ppm [1] [%] | pest or weed control at 0.8 ppm [2] [%] | pest or weed control at 3 ppm [2] [%] | pest or weed control at 12 ppm [3] [%] | pest or weed control at 50 ppm [3] [%] | pest or weed control at 200 ppm [4] [%] | pest or weed control at 200 ppm [5] [%] | pest or weed control at 0.8 ppm [6] [%] | pest or weed control at 3 ppm [6] [%] | pest or weed control at 200 ppm [7] [%] | pest or weed control at 200 ppm [8] [%] | pest or weed control at 12.5 ppm [9] [%] | pest or weed control at 200 ppm [10] [%] | pest or weed control at 3 ppm [3] [%]
1 | Cc1cc(C2=NOC(c3cc(Cl)cc(Cl)c3)(C(F)(F)F)C2)ccc1S(=O)(=O)CC(=O)NCC(F)(F)F (stereo not shown) [Compound A51, 2-{4-[5-(3,5-Dichloro-phenyl)-5-trifluoromethyl-4,5-dihydro-isoxazol-3-yl]-2-methyl-benzenesulfonyl}-N-(2,2,2-trifluoro-ethyl)-acetamide] | ≥ 80 | 80 | 80 | 100 | 100 | ≥ 80 | ≥ 80 | 80 | 100 | ≥ 80 | ≥ 80 | ≥ 80 | ≥ 80 | 
2 | Cc1cc(C2=NOC(c3cc(Cl)cc(Cl)c3)(C(F)(F)F)C2)ccc1SCC(=O)NCC(F)(F)F (stereo not shown) [Compound A49, 2-{2-Methyl-4-[5-(3,5-Dichloro-phenyl)-5-trifluoromethyl-4,5-dihydro-isoxazol-3-yl]-phenylsulfanyl}-N-(2,2,2-trifluoro-ethyl)-acetamide] | ≥ 80 | 80 | 100 | 100 |  | ≥ 80 | ≥ 80 | 80 | 100 | ≥ 80 | ≥ 80 | ≥ 80 | ≥ 80 | 100
3 | Cc1cc(C2=NOC(c3cc(Cl)cc(Cl)c3)(C(F)(F)F)C2)ccc1[S+]([O-])CC(=O)NCC(F)(F)F (stereo not shown) [Compound A50, 2-{4-[5-(3,5-Dichloro-phenyl)-5-trifluoromethyl-4,5-dihydro-isoxazol-3-yl]-2-methyl-benzenesulfinyl}-N-(2,2,2-trifluoro-ethyl)-acetamide] | ≥ 80 | 80 | 80 | 100 | 100 | ≥ 80 | ≥ 80 | 80 | 100 | ≥ 80 | ≥ 80 | ≥ 80 | ≥ 80 | 75
